Data from patent publication US8138159B2, “Composition for inhibiting function of human Flt3” (Takara Bio Inc., priority 2003, dated 2012).
Marks after values point to notes of the source that are not given here.

Assays:
Assay type in all cases: cell-based, human
Flt3 mRNA = Flt3 mRNA interference by synthesized siRNA, real-time RT-PCR (Example 1); settings: for inhibition percentage (%) of the relative mRNA expression level (Flt3 mRNA/GAPDH mRNA): siRNA 200 pmol, Oligofectamin, after 24 hours, vs cells transfected without siRNA
Experimental: Each kind of cell selected from HL-60 cells [Flt3 WT (wild-type) low expressing cells; ATCC CCL-240], EoL-1 cells [Flt3 WT (wild-type) highly expressing cells; ECACC 94042252] and MV4-11 cells [Flt3/ITD highly expressing cells; ATCC CRL-9591] was cultured at 37° C. in an RPMI 1640 medium (manufactured by TAKARA BIO INC.) supplemented with 10% by volume fetal bovine serum (FBS) in the presence of 5% by volume CO2.
Then, the cells (2×10^5 cells/nil) were pre-cultured for 24 hours in a 6-well plate, then recovered, and suspended so as to give a density of 1.5×10^5 cells/ml in Opti-MEM (trade name, manufactured by Invitrogen), and the synthesized siRNA was added to the resulting suspension so as to give a final concentration of 200 pmol. Transfection was carried out using Oligofectamin (trade name, manufactured by Invitrogen) in an amount of 4 μl/reaction, according to an Invitrogen's protocol attached to Oligofectamin (trade name). As a control, the cells were subjected to similar operations without adding the siRNA. The unspecific influence of the siRNA was evaluated using an siRNA to a BCR/ABL chimera mRNA.
Confirmation of RNA interference of the target gene was carried out by determining change in mRNA level by a real-time RT-PCR method as shown below.
Using Oligofectamin (trade name, manufactured by Invitrogen), each kind of cell was transfected with the synthesized siRNA. After 24 hours, whole RNA was extracted from the resulting cells with TRIzol™ reagent (manufactured by Invitrogen), and the resulting product was treated with DNaseI (manufactured by TAKARA BIO INC.). The transfection, the extraction of the whole RNA and the treatment with DNaseI were carried out according to a manufacturer's protocol of the reagent used.
The real-time PCR method was carried out using a Real Time One Step RNA PCR Kit (trade name, manufactured by TAKARA BIO INC.), 100 ng of the resulting RNA as a template and a pair of primers (each 20 pmol), that is, an oligonucleotide having the nucleotide sequence of SEQ ID NO: 13 and an oligonucleotide having the nucleotide sequence of SEQ ID NO: 14. In the real-time RT-PCR method, change in fluorescence based on SYBER Green I (manufactured by TAKARA BIO INC.) was determined with Light Cycler (trade name, manufactured by Roche). The RNA level was standardized by similarly determining GAPDH mRNA with primers set forth in SEQ ID NOs: 15 and 16.
The PCR conditions were as follows: after incubation was carried out at 95° C. for 30 seconds, the reaction was carried out in 40 cycles each consisting of the reaction at 95° C. for 1 second, then at 60° C. for 10 seconds, and at 72° C. for 30 seconds.
The inhibition percentage (%) of the relative mRNA expression level (Flt3 mRNA/GAPDH mRNA) changed by using the synthesized siRNA, as calculated assuming that the relative mRNA expression level (Flt3 mRNA/GAPDH mRNA) of the cells only subjected to each operation of the transfection without adding the synthesized siRNA was 100%, was shown in Table 1.

[1] = test system: EoL1 cells (WT-highly expressing); test: cell growth activity, Premix WST1 (Example 2); settings: for Relative growth ability (%) compared with the control: siRNA 10 nM, after 20 hours, n=3 mean, control = transfection without siRNA
Experimental: (§1) The cells placed in a 96-well plate at a density of 2×10^4 cells/well were cultured in an RPMI medium (containing 10% by volume FBS). The cells were transfected with each of the synthesized (10 nM each) siRNAs, and after 20 hours, the cell growth activity was determined with Premix WST1 reagent (trade name, manufactured by TAKARA BIO INC.). Relative growth ability (%) compared with the growth ability of the control (cells subjected to transfection without adding an siRNA) was determined. Each experiment was carried out with n=3, and the mean was determined.

[2] = test system: HL60 cells (WT-low expressing); test: cell growth activity, Premix WST1 (Example 2); settings: for Ratio of cell-growth activation defining RNA interference effect in HL60 as 1: HL60, the reference itself; for Relative growth ability (%) compared with the control: HL60, siRNA 10 nM, after 20 hours, n=3 mean, control = transfection without siRNA
Experimental: as §1

[3] = test system: MV4-11 cells (ITD mutation-highly expressing); test: cell growth activity, Premix WST1 (Example 2); settings: for Relative growth ability (%) compared with the control: siRNA 10 nM, after 20 hours, n=3 mean, control = transfection without siRNA
Experimental: as §1

[4] = test system: MV4-11 (ITD mutation) cells; test: growth inhibition by siRNA3 in combination with kinase inhibitor AG1295, WST-1 (Example 4); settings: Homo sapiens, MV4-11, kinase inhibitor alone (control siRNA), 72 hours, n=6 mean, read-out: growth inhibition as compared with the cells transfected with the control siRNA/0 μM AG1295
Experimental: The growth inhibitory activity of treatment with a combination of the composition (synthesized siRNA3) of the present invention and a kinase inhibitor on MV4-11 (ITD mutation) cells was examined. The synthesized siRNA3 used was the same as in item (1) of Example 1 above. As the kinase inhibitor, AG1295 (manufactured by CALBIOCHEM) having high specificity to ITD mutation cells was used.
In the same manner as in item (2) of Example 1 above, MV4-11 cells were cultured at 37° C. for 24 hours in a medium obtained by supplementing 10% by volume fetal bovine serum (FBS) to an RPMI 1640 medium (manufactured by TAKARA BIO INC.) (referred to hereinafter as a culture medium) in the presence of 5% by volume CO2. Then, the MV4-11 cells (1×10^6 cells/ml) suspended in Opti-MEM (trade name, manufactured by Invitrogen) were transferred to a cuvette (manufactured by BIO RAD; gap of 4 mm), and siRNA3 was added to the cuvette so as to give a final concentration of 1.2 μM. Then, the cuvette was set in Gene Pulser Xcell (trade name, manufactured by BIO RAD) and thereafter pulsed with electric field intensity of 650 V/cm for 25 msec. Then, the suspension of the cells in the cuvette was added to, and suspended in, a 4-fold excess volume of the culture medium and dispensed onto a 96-well plate so as to give an amount of 100 μl/well. […]
4 mM AG1295 (dissolved in DMSO) was diluted with the above-mentioned culture medium to prepare AG1295 dilutions at a concentration of 10 μM, 6 μM and 0 μM (0.25% by volume DMSO) and added so as to give an amount of 100 μl/well to the 96-well plate prepared in step (2) above and cultured at 37° C. in the presence of 5% by volume CO2. Seventy-two hours after the culture was initiated, the growth activity of the cells was determined using Premix WST-1 reagent (trade name, manufactured by TAKARA BIO INC.) according to a manufacturer's protocol. Each experiment was carried out with n=6, and the mean was determined. The relative growth ratio (%) to the growth ability of the cells transfected with the control siRNA/0 μM AG1295 was determined. […]

[5] = EoL1 (WT-highly expressing), the reference itself
[6] = MV4-11 (ITD mutation-highly expressing)

Compound	Relative ratio of inhibition defining RNA interference effect in EoL1 as 1 (Flt3 mRNA; [5])	inhibition percentage (%) of the relative mRNA expression level (Flt3 mRNA/GAPDH mRNA) (Flt3 mRNA; EoL1 (WT-highly expressing)) [%]	inhibition percentage (%) of the relative mRNA expression level (Flt3 mRNA/GAPDH mRNA) (Flt3 mRNA; HL60 (WT-low expressing)) [%]	Relative ratio of inhibition defining RNA interference effect in EoL1 as 1 (Flt3 mRNA; [6])	inhibition percentage (%) of the relative mRNA expression level (Flt3 mRNA/GAPDH mRNA) (Flt3 mRNA; [6]) [%]	inhibition of Flt3 mRNA expression relative to the cells without using an siRNA (Flt3 mRNA; all cells (MV4-11, EoL1, HL60))	Ratio of cell-growth activation defining RNA interference effect in HL60 as 1 [1]	Relative growth ability (%) compared with the control [1] [%]	Ratio of cell-growth activation defining RNA interference effect in HL60 as 1 [2]	Relative growth ability (%) compared with the control [2] [%]	Ratio of cell-growth activation defining RNA interference effect in HL60 as 1 [3]	Relative growth ability (%) compared with the control [3] [%]	selective inhibition of Flt3 mRNA expression relative to the inhibition ratio in the cells without ITD mutation (WT) (Flt3 mRNA; cells having ITD mutation vs WT cells) [fold]	inhibition of Flt3 mRNA expression (in words) (Flt3 mRNA; siRNA irrelevant to Flt3 mRNA, sequence specificity)	inhibition at 3 µM ([4]; 3.0 μM) [%]	inhibition at 5 µM ([4]; 5.0 μM) [%]
siRNA2: siRNA to TK (kinase) region of Flt3 (target SEQ ID NO: 4); sense SEQ ID NO: 5, antisense SEQ ID NO: 6 (sense CAGGAGUCUCAAUCCAGGUTT; antisense ACCUGGAUUGAGACUCCUGTT; chemistry not given here)	(1)	54	46	(1)	54	around 50%	(0.70)	79.7	(1)	115	(0.36)	41.4	–	–	–	–
siRNA1: siRNA to ATP-binding site region of Flt3 (target SEQ ID NO: 1); sense SEQ ID NO: 2, antisense SEQ ID NO: 3 (sense GGUACUAGGAUCAGGUGCUTT; antisense AGCACCUGAUCCUAGUACCTT; chemistry not given here)	(1)*	41	31	(1.6)	65	–	(0.60)	68.5	(1)*	116	(0.49)	56.4	≥ 1.6	–	–	–
siRNA4: siRNA to BCR/ABL chimera mRNA (target SEQ ID NO: 10); sense SEQ ID NO: 11, antisense SEQ ID NO: 12; unspecific control (sense GCAGAGUUCAAAAGCCCUUTT; antisense AAGGGCUUUUGAACUCUGCTT; chemistry not given here) [reference compound]	–	8	7	–	5	–	–	–	–	–	–	–	–	did not occur	–	–
Cc1cc2ncc(-c3ccccc3)nc2cc1C [AG1295]	–	–	–	–	–	–	–	–	–	–	–	–	–	–	59.8	84.3
